Values of other authors, collected in US6399089B1, “Compositions and methods for regulating metabolism and balancing body weight” (priority 2000, dated 2002).
Read-outs that look alike come from different tables or passages of the source.

How the values were obtained:
[1] = 200 mcg, after 26 weeks, obese patients, very low calorie diet
[2] = rats

chromium picolinate
lean body mass [1]: increased lean body mass

CC(=O)Oc1ccccc1C(=O)O [aspirin]
thermogenic response of ephedrine during a meal (lean women): not lean women | thermogenic response of ephedrine during a meal (obese women): potentiated

CN[C@@H](C)[C@H](O)c1ccccc1 [ephedrine]
increase in energy expenditure [2]: 9% | reduction of body fat [2]: 50% | reduction of body weight [2]: 18%
